Test results as given in US11766470B2, “Manufacture, formulation and dosing of apraglutide” (VectivBio AG, priority 2020, dated 2023).
Square brackets hold non-standard residues; d marks the D form. Peptide text beside a SMILES is read from it. ξ: configuration not given here. Ile(3ξ) = CCC(C)[C@H](N)C(=O)O; Thr(3ξ) = CC(O)[C@H](N)C(=O)O; Nle = CCCC[C@H](N)C(=O)O

System: patients with SBS-IF
Assay: Phase 2 placebo-controlled crossover trial in SBS-IF patients (Example 5): urine output, urine sodium, PS volume, oral fluid intake, hydration parameters, plasma L-citrulline, body composition
Type: in vivo, human
Settings: for Fluid composite effect (increase urine production + reduction PS volume + reduction oral fluid intake): post-hoc
Procedure: The following non-limiting example describes results from a Phase 2 clinical trial in which subjects with SBS-IF were treated with the apraglutide formulations of the present disclosure. This Phase 2 trial investigated the safety and efficacy of 5 and 10 mg apraglutide in patients with SBS-IF.
Eight adult patients with SBS-IF were treated with apraglutide compositions of the present disclosure according to Table 6. Briefly, patients with SBS-IF were administered 5 mg apraglutide of the present disclosure or placebo once a week for four weeks. The patients were then administered 10 mg apraglutide of the present disclosure once a week for four weeks. Additionally, there was a washout period of 6-10 weeks between treatments.
The trial described in Example 5 was a double-blind, crossover, randomized, placebo-controlled, phase 2 trial followed by an additional treatment period in an open-label regimen. Eight adult patients (aged ≥18 to ≤80 years) with SBS-IF were enrolled in the trial. Patient eligibility was assessed during a screening visit. The main inclusion criteria were: Patients with SBS secondary to surgical resection of the small bowel with a jejuno- or ileostomy, at least 6 months since last bowel resection, a fecal output of at least 1500 g/day as recorded within the last 18 months, and PS-infusions≥3 times per week for ≥12 months according to the patient's medical record. Patients were excluded, if they had clinical signs of activity in inflammatory bowel disease, a history of cancer within ≤5 years or an inadequate hepatic, kidney, or heart function. Patients were also excluded, if they had received native GLP-2 or a GLP-2 analogue within the last 3 months.
The procedures during each treatment period were consistent.
Efficacy assessments were performed for each treatment period of 29 days. Patients received a paper diary for recording PS volume administration, urine collections and oral fluid intakes at specific time points. Patients performed home 48-hour urine collections at baseline (day −2 to 1), immediately after first treatment injection (day 1 to 3), and at the end of the treatment period (day 27-29, […] after the fourth administration of the trial drug). Urine was collected by the patient in a urine container with volume markings and 48-hour urine volumes were reported in the diary. After completing the 48-hour collection, patients transferred approximately 100 mL of urine from the container to a sample which was delivered at the next patient visit. The amount of sodium excreted per 48 hours was then calculated as the concentration of sodium in the sample multiplied by the total volume of urine collected. During each urine collection, weekly PS volume and content and daily oral fluid intake were kept constant. Since they were kept constant, increases in urine volume were a sign of increased fluid absorption. […] Patients were to adhere to their drinking menu during each urine collection and the concomitant 48-hour oral fluid intake was reported in the diary during each urine collection.
On day 20-22, patients were informed to record their spontaneous oral fluid intake during 48 hours. This measurement was included to investigate whether increased intestinal absorption was associated with a decrease in their spontaneous oral fluid intake.
Between day 4 and 24, PS volume reductions were allowed if deemed clinically necessary by the investigator. […] PS volume reductions were assessed during day 20-22. Patients returned to their baseline PS volume and content during the end of the treatment urine collection (day 27-29). Concomitant medications including proton-pump inhibitors, loperamide, and opiates were kept unchanged and stable throughout the trial. If necessary, adjustments could be made in the drinking menu and prescribed PS volume and content between treatment periods based on discussions between the patient and the investigator.
Body weight was measured using a levelled platform scale. […]

[1] = 5 mg vs placebo, Part A+B, end of treatment
[2] = 5 mg vs placebo, Part A, day 1-3 after first injection
[3] = 5 mg vs placebo, Part A, day 20-22
[4] = 5 mg vs placebo, Part A, day 27-29
[5] = 5 mg vs placebo, Part A, end of treatment
[6] = 10 mg vs placebo, Part A+B, day 1-3 after first injection
[7] = 10 mg vs placebo, Part A+B, day 20-22
[8] = 10 mg vs placebo, Part A+B, day 27-29
[9] = 10 mg vs placebo, Part A+B, end of treatment

CCCC[C@H](NC(=O)[C@H](CCC(=O)O)NC(=O)[C@H](CC(=O)O)NC(=O)[C@H](CO)NC(=O)[C@H](Cc1ccccc1)NC(=O)[C@H](CO)NC(=O)CNC(=O)[C@H](CC(=O)O)NC(=O)CNC(=O)[C@@H](N)Cc1c[nH]cn1)C(=O)N[C@H](Cc1ccccc1)C(=O)N[C@H](C(=O)N[C@H](C(=O)N[C@@H](CC(C)C)C(=O)N[C@@H](CC(=O)O)C(=O)N[C@@H](CC(C)C)C(=O)N[C@@H](CC(C)C)C(=O)N[C@@H](C)C(=O)N[C@@H](C)C(=O)N[C@@H](CCCNC(=N)N)C(=O)N[C@@H](CC(=O)O)C(=O)N[C@@H](Cc1ccccc1)C(=O)N[C@H](C(=O)N[C@@H](CC(N)=O)C(=O)N[C@@H](Cc1c[nH]c2ccccc12)C(=O)N[C@@H](CC(C)C)C(=O)N[C@H](C(=O)N[C@@H](CCC(N)=O)C(=O)N[C@H](C(=O)N[C@@H](CCCCN)C(=O)N[C@H](C(=O)N[C@H](C(=O)N[C@@H](CC(=O)O)C(N)=O)C(C)O)C(C)CC)C(C)O)C(C)CC)C(C)CC)C(C)CC)C(C)O (stereo partly drawn) [apraglutide, L-histidyl-glycyl-L-aspartyl-glycyl-L-seryl-L-phenylalanyl-L-seryl-L-aspartyl-L-glutamyl-L-norleucyl-D-phenylalanyl-L-threonyl-Lisoleucyl-L-leucyl-L-aspartyl-L-leucyl-L-leucyl-L-alanyl-L-alanyl-L-arginyl-L-aspartyl-L-phenylalanyl-L-isoleucyl-L-asparaginyl-Ltryptophanyl-L-leucyl-L-isoleucyl-L-glutaminyl-L-threonyl-L-lysyl-L-isoleucyl-L-threonyl-Laspartic acid amide] (H-HGDGSFSDE[Nle][dF][Thr(3ξ)][Ile(3ξ)]LDLLAARDF[Ile(3ξ)]NWL[Ile(3ξ)]Q[Thr(3ξ)]K[Ile(3ξ)][Thr(3ξ)]D-NH2)
Relative body weight, adjusted mean change from baseline [1]: 3 (0 to 6); %
Relative bone mineral content, adjusted mean change from baseline [1]: 0 (−3 to 3); %
Relative fat body mass, adjusted mean change from baseline [1]: 10 (1 to 18); %
Relative lean body mass, adjusted mean change from baseline [1]: 2 (−5 to 9); %
Relative plasma L-citrulline, adjusted mean change from baseline [1]: 65 (15 to 115); %
Urea, adjusted mean change from baseline [1]: −0.9 (−2.4 to 0.6); mmol/L
Absolute urine output, adjusted mean change from baseline [2]: −48 (−696 to 601); mL/day
Relative urine output, adjusted mean change from baseline [2]: 5 (−38 to 48); %
Urine sodium excretion (%), adjusted mean change from baseline [2]: 64 (−306 to 433); %
Urine sodium excretion, adjusted mean change from baseline [2]: 3 (−146 to 152); mmol/day
PS volume, adjusted mean change from baseline [3]: −94 (−344 to 156); P = .356 mL/day
Relative PS volume, adjusted mean change from baseline [3]: −13 (−41 to 15); P = .276%
Relative oral fluid intake, adjusted mean change from baseline [3]: −9 (−18 to 1); P = .068%
Absolute urine output, adjusted mean change from baseline [4]: 714 mL/day
Relative urine output, adjusted mean change from baseline [4]: 49%
Urine sodium excretion (%), adjusted mean change from baseline [4]: 189 (−350 to 729); P = .270%
Urine sodium excretion, adjusted mean change from baseline [4]: 66 (−69 to 201); P = .171 mmol/day
Body weight, adjusted mean change from baseline [5]: 1.9 (−0.8 to 4.5); kg
Bone mineral content, adjusted mean change from baseline [5]: −4 (−132 to 123); g
Fat body mass, adjusted mean change from baseline [5]: 1.74 (−0.36 to 3.83); kg
Lean body mass, adjusted mean change from baseline [5]: 0.49 (−4.65 to 5.64); kg
Plasma L-citrulline, adjusted mean change from baseline [5]: 17.7 (−6.3 to 41.7); μmol/L
Relative body weight, adjusted mean change from baseline [5]: 3 (−1 to 7); %
Relative bone mineral content, adjusted mean change from baseline [5]: 0 (−6 to 6); %
Relative fat body mass, adjusted mean change from baseline [5]: 9 (−5 to 24); %
Relative lean body mass, adjusted mean change from baseline [5]: 2 (−11 to 15); %
Relative plasma L-citrulline, adjusted mean change from baseline [5]: 66 (−13 to 145); %
Fluid composite effect (increase urine production + reduction PS volume + reduction oral fluid intake) (5 mg vs placebo, Part A+B): 1,036 mL/day
Absolute urine output, adjusted mean change from baseline [6]: −64 (−500 to 372); mL/day
Relative urine output, adjusted mean change from baseline [6]: −6 (−37 to 24); %
Urine sodium excretion (%), adjusted mean change from baseline [6]: 22 ( −75 to 119); %
Urine sodium excretion, adjusted mean change from baseline [6]: 3 (−17 to 22); mmol/day
Relative PS volume, adjusted mean change from baseline [7]: −28 (−51 to −4); %
Relative oral fluid intake, adjusted mean change from baseline [7]: −15 (−25 to −5); %
Absolute urine output, adjusted mean change from baseline [8]: 795 (195 to 1,394); mL/day
Relative urine output, adjusted mean change from baseline [8]: 34 (−4 to 71); %
Urine sodium excretion (%), adjusted mean change from baseline [8]: 432 ( −87 to 951); %
Urine sodium excretion, adjusted mean change from baseline [8]: 88 (20 to 156); mmol/day
Albumin, adjusted mean change from baseline [9]: 1.0 (−0.9 to 2.9); g/L
Body weight, adjusted mean change from baseline [9]: 1.3 (−0.6 to 3.2); kg
Bone mineral content, adjusted mean change from baseline [9]: 8 (−64 to 81); g
CO2 total, adjusted mean change from baseline [9]: 1.3 (−1.1 to 3.7); mmol/L
Creatinine, adjusted mean change from baseline [9]: −5.1 (−22.1 to 11.9); umol/L
Fat body mass, adjusted mean change from baseline [9]: 0.33 (−1.20 to 1.85); kg
Hematocrit, adjusted mean change from baseline [9]: 0.2 (−0.7 to 1.0); vol/fr
Lean body mass, adjusted mean change from baseline [9]: 0.76 (−2.47 to 3.99); kg
Plasma L-citrulline, adjusted mean change from baseline [9]: 14.0 (−2.3 to 30.3); μmol/L
Protein, adjusted mean change from baseline [9]: −0.7 (−4.7 to 3.3); g/L
Relative body weight, adjusted mean change from baseline [9]: 2 (−1 to 5); %
Relative bone mineral content, adjusted mean change from baseline [9]: 0 (−3 to 3); %
Relative fat body mass, adjusted mean change from baseline [9]: 2 (−7 to 11); %
Relative lean body mass, adjusted mean change from baseline [9]: 2 (−6 to 9); %
Relative plasma L-citrulline, adjusted mean change from baseline [9]: 42 (−10 to 94); %
Urea, adjusted mean change from baseline [9]: −0.6 (−2.2 to 1.0); mmol/L
Fluid composite effect (increase urine production + reduction PS volume + reduction oral fluid intake) (10 mg vs placebo, Part A+B): 1,630 mL/day
